In brackets after ≈: the same amount, converted by molar mass. Entries after “also recorded” stand apart in the source; their conditions may differ.
Tested on: S. invicta workers
Test: Fumigant toxicity in sealed glass flask
Format: in vivo, Solenopsis invicta
Conditions: Solenopsis invicta, 24 h, colony 1, 24 h
Procedure: A 250-ml glass flask (the whole volume is 280 ml) was used to house worker ants in fumigant toxicity bioassays. Two micro-liter of acetone solution of the tested compound was applied onto a paraffin film, which was used to seal the flask with ants. The treated spot of the paraffin film faced the inside of the flask. The upper part of the flask was coated with Fluon® to prevent ants from contacting the test material. Two experiments were conducted. […] LC50 value was established using 5 dosages. Each dosage was replicated 3 times for each of 3 colonies. Each replicate consisted of 15 to 26 ants. Ants that could not stand by themselves were considered dead. Dead ants were counted after 24 h.

Row | Compound | LC50 [µg/mL]
1 | COC(=O)c1ccccc1Cl [M2CB, methyl 2-chlorobenzoate] | 0.89 (≈ 5.22 µM)
2 | COC(=O)c1cccc(C)c1 [M3MB, methyl 3-methylbenzoate] | 0.62 (≈ 4.13 µM)

Same assay, conditions: Solenopsis invicta, 24 h, colony 1, 24 h; read-out: LC50

Row | Compound | LC50 [µg/mL]
3 | CCOC(=O)c1ccccc1 [EB, ethyl benzoate] | 0.89 (≈ 5.93 µM)

Same assay, conditions: Solenopsis invicta, 24 h, colony 2, 24 h

Row | Compound | LC50 [µg/mL]
4 | COC(=O)c1ccccc1Cl [M2CB, methyl 2-chlorobenzoate] | 0.77 (≈ 4.51 µM)
5 | COC(=O)c1cccc(C)c1 [M3MB, methyl 3-methylbenzoate] | 0.7 (≈ 4.66 µM)

Same assay, conditions: Solenopsis invicta, 24 h, colony 2, 24 h; read-out: LC50

Row | Compound | LC50 [µg/mL]
6 | CCOC(=O)c1ccccc1 [EB, ethyl benzoate] | 0.76 (≈ 5.06 µM)

Same assay, conditions: Solenopsis invicta, 24 h, colony 3, 24 h

Row | Compound | LC50 [µg/mL]
7 | COC(=O)c1ccccc1Cl [M2CB, methyl 2-chlorobenzoate] | 0.56 (≈ 3.28 µM)
8 | COC(=O)c1cccc(C)c1 [M3MB, methyl 3-methylbenzoate] | 0.63 (≈ 4.2 µM)

Same assay, conditions: Solenopsis invicta, 24 h, colony 3, 24 h; read-out: LC50

Row | Compound | LC50 [µg/mL]
9 | CCOC(=O)c1ccccc1 [EB, ethyl benzoate] | 1.14 (≈ 7.59 µM)

Same assay, conditions: Solenopsis invicta, 24 h, dosage 1.43 μg/ml, 24 h; read-out: mean mortality

Row | Compound | mortality at 1.43 µg/mL [%]
10 | CCOC(=O)c1ccccc1 [EB, ethyl benzoate] | ~100

Same assay, conditions: Solenopsis invicta, 24 h, mean over colonies, 24 h; read-out: mean LC50 value

Row | Compound | LC50 [µg/mL]
11 | CCOC(=O)c1ccccc1 [EB, ethyl benzoate] | 0.93 (≈ 6.19 µM)

Same assay, conditions: Solenopsis invicta, 24 h, read-out: mean LC50 value, mean over colonies, 24 h

Row | Compound | LC50 [µg/mL]
12 | COC(=O)c1cccc(C)c1 [M3MB, methyl 3-methylbenzoate] | 0.65 (≈ 4.33 µM)

Same assay, conditions: Solenopsis invicta, 24 h, read-out: mean mortality, dosage 1.43 μg/ml, 24 h

Row | Compound | mortality at 1.43 µg/mL [%]
13 | COC(=O)c1ccccc1Cl [M2CB, methyl 2-chlorobenzoate] | 70 to 80
14 | CCCCOC(=O)c1ccccc1 [nBB, n-butyl benzoate] | 2.34
15 | COC(=O)c1ccccc1C [M2MB, methyl 2-methylbenzoate] | 70 to 80
16 | COC(=O)c1ccccc1[N+](=O)[O-] [M2NB, methyl 2-nitrobenzoate] | 0
17 | COC(=O)c1cccc(C)c1 [M3MB, methyl 3-methylbenzoate] | ~100

Same assay, conditions: dosage 1.43 μg/ml, 24 h

Row | Compound | mean mortality [%] | decrease of mean mortality compared with MB [times]
18 | COC(=O)c1ccccc1Cl [M2CB, methyl 2-chlorobenzoate] | 79.4 | –
19 | CCCCOC(=O)c1ccccc1 [nBB, n-butyl benzoate] | – | 42

Same assay, conditions: in vivo

Row | Compound | fumigant toxicity against S. invicta (in words)
20 | COC(=O)c1ccccc1C [M2MB, methyl 2-methylbenzoate] | significantly reduced

Tested on: D. suzukii
Test: Insecticidal activity on larvae and pupae development and adult emergence in pre-infested blueberries (dip)
Format: in vivo, Drosophila suzukii
Conditions: pre-infested berries soaked 2 min in 1% solution; assessed after 10 days at room temperature; mean of three replicates (standard error)
Procedure: Impacts of MB and other compounds on D. suzukii control: To investigate the acute toxicity of some compounds of formula 1 against D. suzukii, a published procedure was followed (Cuthbertson, A. G. S., et al., Insects, 5: 488-498 (2014)). First, mixed-sex adults D. suzukii (100) were introduced into a plastic cage (30×30×30 cm) and reared on blueberries (100) for 4 days. After that, the infested blueberries were taken out from the cage. Half of the blueberries (50) were dipped in 100 mL aqueous emulsion of each compound listed in Table 1 at 1% concentration for 2 min as treatment, while the other half of the blueberries (50) were dipped in DI water for 2 min as blank control. Then the corresponding blueberries were separately taken out, placed in two different Petri dishes, and allowed to air dry for 2 h. Second, treatment and blank control blueberries were respectively stored in two plastic cups (32 oz) with closed caps and incubated at room temperature for 10 days. The emergence of adults was then subsequently assessed. The developments of larvae and pupae were further inspected by dissection of the treatment and blank control berries. Each treatment and blank control was repeated three times.

Row | Compound | Adults | Larvae | Pupae
21 | COC(=O)c1ccccc1Cl [M2CB, methyl 2-chlorobenzoate] | 0 | 0 | 0
22 | CCCCOC(=O)c1ccccc1 [nBB, n-butyl benzoate] | 25.3(1.5) | 4.7(1.2) | 15.0(2.9)
23 | COC(=O)c1ccccc1C [M2MB, methyl 2-methylbenzoate] | 0 | 0 | 0
24 | CCOC(=O)c1ccccc1 [EB, ethyl benzoate] | 0 | 0 | 0
25 | COC(=O)c1ccccc1[N+](=O)[O-] [M2NB, methyl 2-nitrobenzoate] | 0 | 0 | 0
26 | COC(=O)c1cccc(C)c1 [M3MB, methyl 3-methylbenzoate] | 0 | 0 | 0

Tested on: S. invicta workers
Test: not given
Conditions: colony 1, 24 h
Procedure: Fire ant bioassays were conducted in USDA, ARS Stoneville laboratory at 25° C., 80% R.H. with a 12:12 (L:D) photoperiod. Contact toxicities of MB and some compounds of formula 1 against fire ants: Topical application was used for contact toxicity bioassay. Only large workers were used for a purpose of relatively uniform body weight and ease of handling. For all compounds, acetone was used as a solvent. The solution was applied using a 0.779 μl capillary tube. Two experiments were conducted for assessing contact toxicity. […] In order to investigate the structure-activity relationship, LD50 values were also established for MB and EB. […] For each LD50 value, 5 doses of benzoates were used. Each dose was replicated 3 times. Each replicate consisted of 13 to 18 ants. Treated ants were placed in a 30-ml capped cup and dead ants were counted after 24 h.

Row | Compound | LD50 [μg/ant]
27 | CCCCOC(=O)c1ccccc1 [nBB, n-butyl benzoate] | 77.13
28 | CCOC(=O)c1ccccc1 [EB, ethyl benzoate] | 164.32
29 | COC(=O)c1cccc(C)c1 [M3MB, methyl 3-methylbenzoate] | 70.32

Same assay, conditions: colony 2, 24 h

Row | Compound | LD50 [μg/ant]
30 | CCCCOC(=O)c1ccccc1 [nBB, n-butyl benzoate] | 68.51
31 | CCOC(=O)c1ccccc1 [EB, ethyl benzoate] | 129.62
32 | COC(=O)c1cccc(C)c1 [M3MB, methyl 3-methylbenzoate] | 107.48

Same assay, conditions: colony 3, 24 h

Row | Compound | LD50 [μg/ant]
33 | CCCCOC(=O)c1ccccc1 [nBB, n-butyl benzoate] | 50.04
34 | CCOC(=O)c1ccccc1 [EB, ethyl benzoate] | 126.53
35 | COC(=O)c1cccc(C)c1 [M3MB, methyl 3-methylbenzoate] | 67.73

Same assay, conditions: in vivo

Row | Compound | contact toxicity against S. invicta (in words)
36 | CCCCOC(=O)c1ccccc1 [nBB, n-butyl benzoate] | comparable results; also recorded: potent contact toxicities

Tested on: H. halys nymphs
Test: Nymphicidal toxicity, treated filter paper in glass vial
Format: in vivo
Conditions: 2nd stage nymphs, 24 hr
Procedure: Toxicities of MB, some compounds of formula 1, and commercial pesticides on H. halys nymphs: The bioassays were carried out in glass vials (20 mL), following a published procedure (Nielsen, A. L., et al., J. Econ. Entomol., 101: 1439-1442 (2008)). Filter paper was cut into round shape pieces (2.4 cm diameter). 50 μL acetone solution of one derivative or commercial pesticide with different concentrations was loaded onto the filter paper evenly, and the filter paper was dried for 1 min and then put into the bottom of vial. A small piece of green bean was put on the filter paper in the vial as food source. Different stages of H. halys nymphs were introduced into the vial and capped with a cotton ball. For each stage, 30 nymphs were used for each amount. For the nymphs of the first instar, 10 nymphs were put into 1 vial. For the nymphs of the second and third instar, 5 nymphs were put into 1 vial. For the nymphs of the fourth instar, 3 nymphs were put into 1 vial. For the nymphs of the fifth instar, 2 nymphs were put into 1 vial. The mortality was assessed after 24 hr.

Row | Compound | LC50 (95% CL)
37 | COC(=O)c1ccccc1Cl [M2CB, methyl 2-chlorobenzoate] | 1.302 (1.137-1.610) μL/vial
38 | COC(=O)c1ccccc1C [M2MB, methyl 2-methylbenzoate] | 0.974 (0.827-1.109) μL/vial

Same assay, conditions: 3rd stage nymphs, 24 hr

Row | Compound | LC50 (95% CL)
39 | CCOC(=O)c1ccccc1 [EB, ethyl benzoate] | 1.604 (1.468-1.756) μL/vial

Same assay, conditions: 4th stage nymphs, 24 hr

Row | Compound | LC50 (95% CL)
40 | CCCCOC(=O)c1ccccc1 [nBB, n-butyl benzoate] | 3.370 (2.441-6.922) μL/vial
41 | COC(=O)c1cccc(C)c1 [M3MB, methyl 3-methylbenzoate] | 2.433 (2.000-3.417) μL/vial

Same assay, conditions: in vivo

Row | Compound | toxicity against H. halys nymphs (in words)
42 | COC(=O)c1ccccc1[N+](=O)[O-] [M2NB, methyl 2-nitrobenzoate] | ineffective

Tested on: L. dispar larvae
Test: Larvicidal toxicity, treated filter paper in Petri dish
Format: in vivo
Conditions: 1st stage larvae, 24 hr
Procedure: Toxicities of MB and some compounds of formula 1 on L. dispar larvae: The bioassays were carried out in plastic Petri dish loaded with filter paper, following a published procedure (Nielsen 2008). 600 μL acetone solution of one derivative with different concentrations was loaded onto the filter paper (90 mm diameter) evenly, and the filter paper was dried for 2 min and then put into the bottom of Petri dish. 10 L. dispar larvae were put onto the Petri dish and covered with a lid. 30 larvae were used for each amount. The mortality was assessed after 24 hr.

Row | Compound | LC50 (95% CL)
43 | COC(=O)c1ccccc1Cl [M2CB, methyl 2-chlorobenzoate] | 0.130 (0.097-0.159) mg/cm^2
44 | CCCCOC(=O)c1ccccc1 [nBB, n-butyl benzoate] | 0.276 (0.223-0.393) mg/cm^2
45 | COC(=O)c1ccccc1C [M2MB, methyl 2-methylbenzoate] | 0.155 (0.134-0.174) mg/cm^2
46 | CCOC(=O)c1ccccc1 [EB, ethyl benzoate] | 0.115 (0.107-0.123) mg/cm^2
47 | COC(=O)c1cccc(C)c1 [M3MB, methyl 3-methylbenzoate] | 0.102 (0.083-0.121) mg/cm^2

Same assay, conditions: in vivo

Row | Compound | larvicidal toxicity against L. dispar (in words)
48 | COC(=O)c1ccccc1[N+](=O)[O-] [M2NB, methyl 2-nitrobenzoate] | did not show any toxicities

Tested on: H. halys eggs
Test: Ovicidal toxicity, direct spray on eggs
Format: in vivo
Conditions: eggs sprayed, 10 days
Description: Ovicidal toxicities of MB and some compounds of formula 1: The aqueous solutions of one of the compounds of formula 1 with designated concentrations with different concentrations of active ingredient (AI) were separately stored in glass spray bottles according to a published procedure (Cuthbertson 2014). The eggs (10 for H. halys and 100 for P. xylostella) were laid on filter papers in Petri dishes. Different aqueous insecticidal solutions were sprayed on the surfaces of different eggs three times (˜0.5 mL) to completely cover the treatment areas. Then the Petri dishes were covered with lids and maintained in a fume hood for 10 days. The Petri dishes were then inspected for presence of nymph/larvae development or numbers of unhatched eggs.

Row | Compound | LC50 (95% CL)
49 | COC(=O)c1ccccc1Cl [M2CB, methyl 2-chlorobenzoate] | 0.011 (0.008-0.013) mg/cm^2
50 | COC(=O)c1ccccc1C [M2MB, methyl 2-methylbenzoate] | 0.014 (0.005-0.027) mg/cm^2
51 | CCOC(=O)c1ccccc1 [EB, ethyl benzoate] | 0.014 (0.010-0.019) mg/cm^2
52 | COC(=O)c1ccccc1[N+](=O)[O-] [M2NB, methyl 2-nitrobenzoate] | 0.010 (0.002-0.019) mg/cm^2
53 | COC(=O)c1cccc(C)c1 [M3MB, methyl 3-methylbenzoate] | 0.016 (0.009-0.024) mg/cm^2

Source: patent US20230371508A1, “COMPOSITIONS AND METHODS FOR KILLING INSECT AND NON-INSECT PESTS” (The United States of America, as represented by the …, priority 2018, published 2023)
